# Assay results reported in patent US6156700A, “3-(1,2-Benzisothiazol- and isoxazol-5-yl)-2,4(1H,3H)-pyrimidinedione or thione and 3-(1,2-benzisothiazol- and isoxazol-5-yl)-4(3H)-pyrimidinone or thione herbicidal agents” (American Cyanmid Company, priority 1998, dated 2000).
# What was measured:
# ABUTH [1] = experiment: Preemergence herbicidal evaluation; type: in vivo; parameters: scale not given here
# Method: (§1) The preemergence and postemergence herbicidal properties of certain compounds of the present invention are compared with certain compounds disclosed in U.S. Pat. Nos. 5,484,763 and 5,523,278. The evaluations are performed as described in Examples 185 and 186. Data in Tables V and VI are reported by the compound number given in Example 185 for the compounds of this invention or by comparative compound letter for the compounds disclosed in U.S. Pat. Nos. 5,484,763 and 5,523,278.
# AMBEL [2] = experiment: Preemergence herbicidal evaluation; type: in vivo; parameters: scale not given here
# Method: as §1
# CASOB [3] = experiment: Preemergence herbicidal evaluation; type: in vivo; parameters: scale not given here
# Method: as §1
# CHEAL [4] = experiment: Preemergence herbicidal evaluation; type: in vivo; parameters: scale not given here
# Method: as §1
# ECHCG [5] = experiment: Preemergence herbicidal evaluation; type: in vivo; parameters: scale not given here
# Method: as §1
# GALAP [6] = experiment: Preemergence herbicidal evaluation; type: in vivo; parameters: scale not given here
# Method: as §1
# GLXMAW [7] = experiment: Preemergence herbicidal evaluation; type: in vivo; parameters: scale not given here
# Method: as §1
# IPOSS [8] = experiment: Preemergence herbicidal evaluation; type: in vivo; parameters: scale not given here
# Method: as §1
# SETVI [9] = experiment: Preemergence herbicidal evaluation; type: in vivo; parameters: scale not given here
# Method: as §1
# ZEAMX [10] = experiment: Preemergence herbicidal evaluation; type: in vivo; parameters: scale not given here
# Method: as §1
# ORYSAT [11] = experiment: Preemergence herbicidal evaluation; type: in vivo, Oryza sativa; parameters: scale not given here
# Method: as §1
# ABUTH [12] = experiment: Postemergence herbicidal evaluation; type: in vivo
# AMBEL [13] = experiment: Postemergence herbicidal evaluation; type: in vivo
# CASOB [14] = experiment: Postemergence herbicidal evaluation; type: in vivo
# CHEAL [15] = experiment: Postemergence herbicidal evaluation; type: in vivo
# GALAP [16] = experiment: Postemergence herbicidal evaluation; type: in vivo
# IPOSS [17] = experiment: Postemergence herbicidal evaluation; type: in vivo
# ECHCG [18] = experiment: Postemergence herbicidal evaluation; type: in vivo
# SETVI [19] = experiment: Postemergence herbicidal evaluation; type: in vivo
# GLXMAW [20] = experiment: Postemergence herbicidal evaluation; type: in vivo
# ORYSAT [21] = experiment: Postemergence herbicidal evaluation; type: in vivo, Oryza sativa
# ZEAMX [22] = experiment: Postemergence herbicidal evaluation; type: in vivo
structure (smiles),measurement,setting,value
O=C1C2=C(CCCC2)C(=O)N1c1ccc2sncc2c1 [C],herbicidal effect rating,ABUTH [1]; 0.0313-0.0320 kg/ha,0.0
same,herbicidal effect rating,ABUTH [1]; 0.0620-0.0630 kg/ha,2.0
same,herbicidal effect rating,ABUTH [1]; 0.1250 kg/ha,4.0
same,herbicidal effect rating,ABUTH [1]; 0.2500 kg/ha,9.0
same,herbicidal effect rating,ABUTH [1]; 0.5000 kg/ha,9.0
same,herbicidal effect rating,AMBEL [2]; 0.0313-0.0320 kg/ha,3.0
same,herbicidal effect rating,AMBEL [2]; 0.0620-0.0630 kg/ha,3.0
same,herbicidal effect rating,AMBEL [2]; 0.1250 kg/ha,2.0
same,herbicidal effect rating,AMBEL [2]; 0.2500 kg/ha,2.0
same,herbicidal effect rating,AMBEL [2]; 0.5000 kg/ha,6.0
same,herbicidal effect rating,CASOB [3]; 0.0313-0.0320 kg/ha,1.0
same,herbicidal effect rating,CASOB [3]; 0.0620-0.0630 kg/ha,0.0
same,herbicidal effect rating,CASOB [3]; 0.1250 kg/ha,0.0
same,herbicidal effect rating,CASOB [3]; 0.2500 kg/ha,0.0
same,herbicidal effect rating,CASOB [3]; 0.5000 kg/ha,5.5
same,herbicidal effect rating,CHEAL [4]; 0.0313-0.0320 kg/ha,3.0
same,herbicidal effect rating,CHEAL [4]; 0.0620-0.0630 kg/ha,4.0
same,herbicidal effect rating,CHEAL [4]; 0.1250 kg/ha,5.0
same,herbicidal effect rating,CHEAL [4]; 0.2500 kg/ha,3.0
same,herbicidal effect rating,CHEAL [4]; 0.5000 kg/ha,7.0
same,herbicidal effect rating,ECHCG [5]; 0.0313-0.0320 kg/ha,0.0
same,herbicidal effect rating,ECHCG [5]; 0.0620-0.0630 kg/ha,0.0
same,herbicidal effect rating,ECHCG [5]; 0.1250 kg/ha,2.0
same,herbicidal effect rating,ECHCG [5]; 0.2500 kg/ha,4.0
same,herbicidal effect rating,ECHCG [5]; 0.5000 kg/ha,6.0
same,herbicidal effect rating,GALAP [6]; 0.0620-0.0630 kg/ha,2.0
same,herbicidal effect rating,GALAP [6]; 0.1250 kg/ha,2.0
same,herbicidal effect rating,GALAP [6]; 0.2500 kg/ha,6.0
same,herbicidal effect rating,GALAP [6]; 0.5000 kg/ha,7.5
same,herbicidal effect rating,GLXMAW [7]; 0.0313-0.0320 kg/ha,0.0
same,herbicidal effect rating,GLXMAW [7]; 0.0620-0.0630 kg/ha,0.0
same,herbicidal effect rating,GLXMAW [7]; 0.1250 kg/ha,0.0
same,herbicidal effect rating,GLXMAW [7]; 0.2500 kg/ha,0.0
same,herbicidal effect rating,GLXMAW [7]; 0.5000 kg/ha,0.0
same,herbicidal effect rating,IPOSS [8]; 0.0313-0.0320 kg/ha,0.0
same,herbicidal effect rating,IPOSS [8]; 0.0620-0.0630 kg/ha,0.0
same,herbicidal effect rating,IPOSS [8]; 0.1250 kg/ha,0.0
same,herbicidal effect rating,IPOSS [8]; 0.2500 kg/ha,0.0
same,herbicidal effect rating,IPOSS [8]; 0.5000 kg/ha,2.0
same,herbicidal effect rating,SETVI [9]; 0.0313-0.0320 kg/ha,0.0
same,herbicidal effect rating,SETVI [9]; 0.0620-0.0630 kg/ha,0.0
same,herbicidal effect rating,SETVI [9]; 0.1250 kg/ha,2.0
same,herbicidal effect rating,SETVI [9]; 0.2500 kg/ha,4.0
same,herbicidal effect rating,SETVI [9]; 0.5000 kg/ha,5.0
same,herbicidal effect rating,ZEAMX [10]; 0.0313-0.0320 kg/ha,0.0
same,herbicidal effect rating,ZEAMX [10]; 0.0620-0.0630 kg/ha,0.0
same,herbicidal effect rating,ZEAMX [10]; 0.1250 kg/ha,0.0
same,herbicidal effect rating,ZEAMX [10]; 0.2500 kg/ha,0.0
same,herbicidal effect rating,ZEAMX [10]; 0.5000 kg/ha,0.0
same,herbicidal effect rating,ORYSAT [11]; 0.0313-0.0320 kg/ha,1.0
same,herbicidal effect rating,ORYSAT [11]; 0.0620-0.0630 kg/ha,2.0
same,herbicidal effect rating,ORYSAT [11]; 0.1250 kg/ha,2.0
same,herbicidal effect rating,ORYSAT [11]; 0.2500 kg/ha,4.0
same,herbicidal effect rating,ORYSAT [11]; 0.5000 kg/ha,4.0
same,herbicidal effect rating,ABUTH [12]; 0.0157-0.0160 kg/ha,8.0
same,herbicidal effect rating,ABUTH [12]; 0.0313-0.0320 kg/ha,9.0
same,herbicidal effect rating,ABUTH [12]; 0.0625-0.0640 kg/ha,9.0
same,herbicidal effect rating,ABUTH [12]; 0.1250 kg/ha,9.0
same,herbicidal effect rating,ABUTH [12]; 0.2500 kg/ha,9.0
same,herbicidal effect rating,ABUTH [12]; 0.5000 kg/ha,9.0
same,herbicidal effect rating,AMBEL [13]; 0.0157-0.0160 kg/ha,6.0
same,herbicidal effect rating,AMBEL [13]; 0.0313-0.0320 kg/ha,6.0
same,herbicidal effect rating,AMBEL [13]; 0.0625-0.0640 kg/ha,7.0
same,herbicidal effect rating,AMBEL [13]; 0.1250 kg/ha,8.0
same,herbicidal effect rating,AMBEL [13]; 0.2500 kg/ha,7.0
same,herbicidal effect rating,AMBEL [13]; 0.5000 kg/ha,9.0
same,herbicidal effect rating,CASOB [14]; 0.0157-0.0160 kg/ha,3.0
same,herbicidal effect rating,CASOB [14]; 0.0313-0.0320 kg/ha,8.0
same,herbicidal effect rating,CASOB [14]; 0.0625-0.0640 kg/ha,7.0
same,herbicidal effect rating,CASOB [14]; 0.1250 kg/ha,7.0
same,herbicidal effect rating,CASOB [14]; 0.2500 kg/ha,7.0
same,herbicidal effect rating,CASOB [14]; 0.5000 kg/ha,9.0
same,herbicidal effect rating,CHEAL [15]; 0.0157-0.0160 kg/ha,0.0
same,herbicidal effect rating,CHEAL [15]; 0.0313-0.0320 kg/ha,3.0
same,herbicidal effect rating,CHEAL [15]; 0.0625-0.0640 kg/ha,3.0
same,herbicidal effect rating,CHEAL [15]; 0.1250 kg/ha,3.0
same,herbicidal effect rating,CHEAL [15]; 0.2500 kg/ha,4.0
same,herbicidal effect rating,CHEAL [15]; 0.5000 kg/ha,5.0
same,herbicidal effect rating,GALAP [16]; 0.0157-0.0160 kg/ha,2.0
same,herbicidal effect rating,GALAP [16]; 0.0313-0.0320 kg/ha,3.0
same,herbicidal effect rating,GALAP [16]; 0.0625-0.0640 kg/ha,5.0
same,herbicidal effect rating,GALAP [16]; 0.1250 kg/ha,6.0
same,herbicidal effect rating,GALAP [16]; 0.2500 kg/ha,6.0
same,herbicidal effect rating,GALAP [16]; 0.5000 kg/ha,9.0
same,herbicidal effect rating,IPOSS [17]; 0.0157-0.0160 kg/ha,2.0
same,herbicidal effect rating,IPOSS [17]; 0.0313-0.0320 kg/ha,6.0
same,herbicidal effect rating,IPOSS [17]; 0.0625-0.0640 kg/ha,5.0
same,herbicidal effect rating,IPOSS [17]; 0.1250 kg/ha,7.0
same,herbicidal effect rating,IPOSS [17]; 0.2500 kg/ha,6.0
same,herbicidal effect rating,IPOSS [17]; 0.5000 kg/ha,7.0
same,herbicidal effect rating,ECHCG [18]; 0.0157-0.0160 kg/ha,0.0
same,herbicidal effect rating,ECHCG [18]; 0.0313-0.0320 kg/ha,0.0
same,herbicidal effect rating,ECHCG [18]; 0.0625-0.0640 kg/ha,0.0
same,herbicidal effect rating,ECHCG [18]; 0.1250 kg/ha,0.0
same,herbicidal effect rating,ECHCG [18]; 0.2500 kg/ha,0.0
same,herbicidal effect rating,ECHCG [18]; 0.5000 kg/ha,0.0
same,herbicidal effect rating,SETVI [19]; 0.0157-0.0160 kg/ha,0.0
same,herbicidal effect rating,SETVI [19]; 0.0313-0.0320 kg/ha,0.0
same,herbicidal effect rating,SETVI [19]; 0.0625-0.0640 kg/ha,0.0
same,herbicidal effect rating,SETVI [19]; 0.1250 kg/ha,0.0
same,herbicidal effect rating,SETVI [19]; 0.2500 kg/ha,0.0
same,herbicidal effect rating,SETVI [19]; 0.5000 kg/ha,2.0
same,herbicidal effect rating,GLXMAW [20]; 0.0157-0.0160 kg/ha,1.0
same,herbicidal effect rating,GLXMAW [20]; 0.0313-0.0320 kg/ha,1.5
same,herbicidal effect rating,GLXMAW [20]; 0.0625-0.0640 kg/ha,3.0
same,herbicidal effect rating,GLXMAW [20]; 0.1250 kg/ha,2.0
same,herbicidal effect rating,GLXMAW [20]; 0.2500 kg/ha,2.5
same,herbicidal effect rating,GLXMAW [20]; 0.5000 kg/ha,4.5
same,herbicidal effect rating,ORYSAT [21]; 0.0157-0.0160 kg/ha,2.0
same,herbicidal effect rating,ORYSAT [21]; 0.0313-0.0320 kg/ha,2.0
same,herbicidal effect rating,ORYSAT [21]; 0.0625-0.0640 kg/ha,2.5
same,herbicidal effect rating,ORYSAT [21]; 0.1250 kg/ha,2.5
same,herbicidal effect rating,ORYSAT [21]; 0.2500 kg/ha,3.0
same,herbicidal effect rating,ORYSAT [21]; 0.5000 kg/ha,4.5
same,herbicidal effect rating,ZEAMX [22]; 0.0157-0.0160 kg/ha,1.5
same,herbicidal effect rating,ZEAMX [22]; 0.0313-0.0320 kg/ha,2.0
same,herbicidal effect rating,ZEAMX [22]; 0.0625-0.0640 kg/ha,1.5
same,herbicidal effect rating,ZEAMX [22]; 0.1250 kg/ha,1.5
same,herbicidal effect rating,ZEAMX [22]; 0.2500 kg/ha,2.5
same,herbicidal effect rating,ZEAMX [22]; 0.5000 kg/ha,3.0
